As a reminder, the IC50 is the concentration at which inhibition is half-maximal. A lower IC50 goes with inhibition by little substance.

Sequence of EGFR (human) (P00533 whole entry, looked up): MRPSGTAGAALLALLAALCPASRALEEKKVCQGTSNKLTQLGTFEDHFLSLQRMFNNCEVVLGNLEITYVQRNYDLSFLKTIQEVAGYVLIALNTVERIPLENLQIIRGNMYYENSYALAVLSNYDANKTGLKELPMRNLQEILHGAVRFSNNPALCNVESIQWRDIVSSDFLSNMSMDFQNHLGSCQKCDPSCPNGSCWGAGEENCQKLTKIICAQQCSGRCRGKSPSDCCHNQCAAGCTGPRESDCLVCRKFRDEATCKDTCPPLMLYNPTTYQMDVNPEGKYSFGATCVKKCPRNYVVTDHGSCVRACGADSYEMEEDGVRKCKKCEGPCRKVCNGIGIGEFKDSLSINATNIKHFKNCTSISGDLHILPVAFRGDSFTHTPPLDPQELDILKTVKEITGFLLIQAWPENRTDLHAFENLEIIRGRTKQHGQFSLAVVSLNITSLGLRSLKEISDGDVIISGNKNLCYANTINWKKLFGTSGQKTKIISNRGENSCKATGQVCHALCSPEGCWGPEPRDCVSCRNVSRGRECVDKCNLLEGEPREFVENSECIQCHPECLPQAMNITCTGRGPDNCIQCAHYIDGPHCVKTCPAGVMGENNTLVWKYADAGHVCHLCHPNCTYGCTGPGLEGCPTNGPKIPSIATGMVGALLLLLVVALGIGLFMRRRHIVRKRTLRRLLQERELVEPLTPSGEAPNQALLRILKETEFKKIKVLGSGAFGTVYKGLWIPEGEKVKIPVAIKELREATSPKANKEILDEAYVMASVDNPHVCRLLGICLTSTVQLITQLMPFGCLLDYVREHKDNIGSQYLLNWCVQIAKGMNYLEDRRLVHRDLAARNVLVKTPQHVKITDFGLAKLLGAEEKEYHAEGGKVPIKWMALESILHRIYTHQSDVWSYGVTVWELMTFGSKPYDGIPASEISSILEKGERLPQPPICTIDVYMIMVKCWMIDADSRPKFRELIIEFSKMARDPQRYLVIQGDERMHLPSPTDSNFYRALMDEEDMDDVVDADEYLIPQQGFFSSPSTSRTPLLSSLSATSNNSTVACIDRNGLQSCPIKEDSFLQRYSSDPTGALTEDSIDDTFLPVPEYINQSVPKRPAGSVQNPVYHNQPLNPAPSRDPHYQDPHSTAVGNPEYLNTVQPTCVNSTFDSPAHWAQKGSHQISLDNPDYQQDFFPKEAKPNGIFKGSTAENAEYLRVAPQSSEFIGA

The test concerns the target EGFR (human) (UniProt P00533).
The compound `C=CC(=O)N1CCC[C@@H](n2nc(-c3ccc(CNS(=O)(=O)c4cc(C)ccc4C)cc3)c3c(N)ncnc32)C1` gave a half-inhibitory concentration (IC50) of 194 nM. For the compound `C=CC(=O)N1CCC[C@@H](n2nc(-c3ccc(CN(C)S(=O)(=O)c4ccccc4F)cc3)c3c(N)ncnc32)C1`, the IC50 came to 78.8 nM. In the case of `C=CC(=O)N1CCC[C@@H](n2nc(-c3ccc(CNS(=O)(=O)c4cc(F)ccc4OC)cc3)c3c(N)ncnc32)C1`, the IC50 stood at 163 nM. This IC50 is about 2.1-fold higher than that of the compound before. Under `C=CC(=O)N1CCC[C@@H](n2nc(-c3ccc(CNS(=O)(=O)c4cc(C)ccc4OC)cc3)c3c(N)ncnc32)C1` stands 351 nM; under `C=CC(=O)N1CCC[C@@H](n2nc(-c3ccc(CNS(=O)(=O)c4ccccc4C)cc3)c3c(N)ncnc32)C1`, 91.8 nM. `C=CC(=O)N1CCC[C@@H](n2nc(-c3ccc(CNS(C)(=O)=O)cc3)c3c(N)ncnc32)C1` returned an IC50 of 112 nM. Under `C=CC(=O)N1CCC[C@@H](n2nc(-c3ccc(CNS(=O)(=O)c4cccc(F)c4)cc3)c3c(N)ncnc32)C1` stands 81.7 nM; under `C=CC(=O)N1CCC[C@@H](n2nc(-c3ccc(CNS(=O)(=O)C4CCCCC4)cc3)c3c(N)ncnc32)C1`, 45 nM. `C=CC(=O)N1CCC[C@@H](n2nc(-c3ccc(CNS(=O)(=O)CC)cc3)c3c(N)ncnc32)C1`: the IC50 was determined as 132 nM. `C=CC(=O)N1CCC[C@@H](n2nc(-c3ccc(CNS(=O)(=O)c4ccc(F)cc4F)cc3)c3c(N)ncnc32)C1`: the IC50 worked out at 124 nM. The IC50 values of the last two compounds are within 1.5-fold of each other. The compound `C=CC(=O)N1CCC[C@@H](n2nc(-c3ccc(CNS(=O)(=O)c4ccc(C)cc4)cc3)c3c(N)ncnc32)C1` showed a 50% inhibitory concentration (IC50) of 90.7 nM. As to `C=CC(=O)N1CCC[C@@H](n2nc(-c3ccc(CNS(=O)(=O)c4ccccc4F)cc3)c3c(N)ncnc32)C1`, the IC50 came out at 41 nM. This IC50 lies about 2.2-fold lower than the previous one. Compound `C=CC(=O)N1CCC[C@@H](n2nc(-c3ccc(CNS(=O)(=O)c4cc(F)cc(C(F)(F)F)c4)cc3)c3c(N)ncnc32)C1` registered an IC50 of 97.7 nM. Compared with the last compound, the IC50 is about 2.4-fold higher. `C=CC(=O)N1CCC[C@@H](n2nc(-c3ccc(CNS(=O)(=O)c4cccc(OC)c4)cc3)c3c(N)ncnc32)C1` showed an IC50 of 290 nM. Under `C=CC(=O)N1CCC[C@@H](n2nc(-c3ccc(CNS(=O)(=O)c4cccc(Cl)c4)cc3)c3c(N)ncnc32)C1` stands 45.7 nM; under `C=CC(=O)N1CCC[C@@H](n2nc(-c3ccc(CNS(=O)(=O)c4ccc(F)cc4)cc3)c3c(N)ncnc32)C1`, 363 nM. As to `C=CC(=O)N1CCC[C@@H](n2nc(-c3ccc(CNS(=O)(=O)c4ccc(C)cc4C)cc3)c3c(N)ncnc32)C1`, the IC50 was 250 nM. Compound `C=CC(=O)N1CCC[C@@H](n2nc(-c3ccc(CNS(=O)(=O)c4ccc5ccccc5c4)cc3)c3c(N)ncnc32)C1` registered an IC50 of 98.7 nM. On to `N#CN1CCC[C@@H](n2nc(-c3ccc(CNS(=O)(=O)c4cccc(Cl)c4)cc3)c3c(N)ncnc32)C1`, for which the half-inhibitory concentration (IC50) amounted to 572 nM. In the case of `C=CC(=O)N1CCC[C@@H](n2nc(-c3ccc(CNS(=O)(=O)c4ccc(Cl)cc4)cc3)c3c(N)ncnc32)C1`, the IC50 is 60.5 nM. Against the preceding compound, the IC50 is about 9.5-fold lower. On to `C=CC(=O)N1CCC[C@@H](n2nc(-c3ccc(CNS(=O)(=O)CCC(F)(F)F)cc3)c3c(N)ncnc32)C1`, for which the 50% inhibitory concentration (IC50) was found to be 277 nM. `C=CC(=O)N1CCC[C@@H](n2nc(-c3ccc(CNS(=O)(=O)c4cc(C)ccc4F)cc3)c3c(N)ncnc32)C1` showed an IC50 of 64.6 nM. `C=CC(=O)N1CCC[C@@H](n2nc(-c3ccc(CNS(=O)(=O)c4cc(C(F)(F)F)ccc4F)cc3)c3c(N)ncnc32)C1` returned an IC50 of 151 nM. Against the preceding compound, the IC50 is about 2.3-fold higher. Compound `C=CC(=O)N1CCC[C@@H](n2nc(-c3ccc(CNS(=O)(=O)c4ccc(OCC)cc4)cc3)c3c(N)ncnc32)C1` had an IC50 of 371 nM. In turn, `C=CC(=O)N1CCC[C@@H](n2nc(-c3ccc(CNS(=O)(=O)c4cc(Cl)ccc4F)cc3)c3c(N)ncnc32)C1` showed a 50% inhibitory concentration (IC50) of 120 nM. Against the preceding compound, the IC50 is about 3.1-fold lower. Under `C=CC(=O)N1CCC[C@@H](n2nc(-c3ccc(CNS(=O)(=O)c4ccc5c(c4)CCC5)cc3)c3c(N)ncnc32)C1` stands 73.3 nM; under `C=CC(=O)N1CCC[C@@H](n2nc(-c3ccc(CNS(=O)(=O)c4c(F)cccc4F)cc3)c3c(N)ncnc32)C1`, 95.7 nM; under `N#CN1CCC[C@@H](n2nc(-c3ccc(CNS(=O)(=O)c4cccc(F)c4)cc3)c3c(N)ncnc32)C1`, 272 nM. With `C=CC(=O)N1CCC[C@@H](n2nc(-c3ccc(CNS(=O)(=O)c4ccc(-c5ccccc5)cc4)cc3)c3c(N)ncnc32)C1`, the IC50 came out at 73 nM. Under `C=CC(=O)N1CCC[C@@H](n2nc(-c3ccc(CNS(=O)(=O)c4cccc(C)c4)cc3)c3c(N)ncnc32)C1` stands 86.2 nM; under `C=CC(=O)N1CCC[C@@H](n2nc(-c3ccc(CNS(=O)(=O)c4ccccc4OC(F)(F)F)cc3)c3c(N)ncnc32)C1`, 452 nM.

Compound `C=CC(=O)N1CCC[C@@H](n2nc(-c3ccc(CNS(=O)(=O)c4cc(F)cc(F)c4)cc3)c3c(N)ncnc32)C1` had a half-inhibitory concentration (IC50) of 120 nM. Under `C=CC(=O)N1CCC[C@@H](n2nc(-c3ccc(CNS(=O)(=O)c4ccccc4)cc3)c3c(N)ncnc32)C1` stands 265 nM. As to `C=CC(=O)N1CCC[C@@H](n2nc(-c3ccc(CNS(=O)(=O)c4ccc(OC)cc4)cc3)c3c(N)ncnc32)C1`, the IC50 was determined as 129 nM.

Consider `C=CC(=O)N1CCC[C@@H](n2nc(-c3ccc(CNS(=O)(=O)c4ccccc4Cl)cc3)c3c(N)ncnc32)C1`, for which the IC50 was 168 nM. This IC50 and that of the compound before are within 1.5-fold of each other. Turning to `C=CC(=O)N1CCC[C@@H](n2nc(-c3ccc(CNS(=O)(=O)c4ccccc4C(F)(F)F)cc3)c3c(N)ncnc32)C1`, the half-maximal inhibitory concentration (IC50) came out at 86.3 nM. `C=CC(=O)N1CCC[C@@H](n2nc(-c3ccc(CNS(=O)(=O)c4ccc(C)cc4F)cc3)c3c(N)ncnc32)C1` registered a concentration for half-maximal inhibition (IC50) of 174 nM. Under `C=CC(=O)N1CCC[C@@H](n2nc(-c3ccc(CNS(=O)(=O)c4cccc5ccccc45)cc3)c3c(N)ncnc32)C1` stands 58.1 nM; under `C=CC(=O)N1CCC[C@@H](n2nc(-c3ccc(CNS(=O)(=O)c4ccc(F)c(C(F)(F)F)c4)cc3)c3c(N)ncnc32)C1`, 199 nM; under `C=CC(=O)N1CCC[C@@H](n2nc(-c3ccc(CNS(=O)(=O)c4ccc(C)cc4OC)cc3)c3c(N)ncnc32)C1`, 323 nM.
